# Where a SMILES comes first, the peptide text is derived from it. [ ]: non-standard residue; d: D form. NMeF = CN[C@@H](Cc1ccccc1)C(=O)O; dNMeF = CN[C@H](Cc1ccccc1)C(=O)O; NMeL = CN[C@@H](CC(C)C)C(=O)O; dNMeL = CN[C@H](CC(C)C)C(=O)O; NMeNle = CCCC[C@H](NC)C(=O)O; NMeV = CN[C@H](C(=O)O)C(C)C; NMeA = CN[C@@H](C)C(=O)O; Nle = CCCC[C@H](N)C(=O)O; dNMeA = CN[C@H](C)C(=O)O; Sar = CNCC(=O)O
# Conditions: PAMPA
Compound,PAMPA_Papp_Avg,PAMPA_R1,PAMPA_R3
"CCCC[C@@H]1NC(=O)[C@H](CC(C)C)NC(=O)[C@@H]2CCCN2C(=O)[C@H]2CCCN2C(=O)[C@@H](C)NC(=O)[C@H]2CCCN2C(=O)[C@@H](CC(C)C)NC(=O)[C@@H](C)N(C)C(=O)[C@H](CC(C)C)N(C)C(=O)[C@@H](C)N(C)C1=O [Design D10.40, MET *DALA *LEU *DALA DLEU DPRO DALA DPRO PRO LEU] (cyclo(L[Nle][dNMeA][NMeL][dNMeA][dL][dP][dA][dP]P))",7.09E-07,6.40E-07,6.95E-07
"CCCC[C@H]1C(=O)N[C@@H]([C@@H](C)CC)C(=O)N2CCC[C@H]2C(=O)N2CCC[C@@H]2C(=O)N[C@H](CC(C)C)C(=O)N[C@@H]([C@@H](C)CC)C(=O)N2CCC[C@@H]2C(=O)N[C@H](Cc2ccccc2)C(=O)N[C@@H](C(C)C)C(=O)N(C)[C@H](CC(C)C)C(=O)N1C [Design D10.44, VAL *DLEU *MET ILE PRO DPRO DLEU ILE DPRO DPHE] (cyclo(IP[dP][dL]I[dP][dF]V[dNMeL][NMeNle]))",BQL,BQL,BQL
"CC[C@H](C)[C@@H]1NC(=O)[C@H](Cc2ccccc2)N(C)C(=O)[C@H]2CCCN2C(=O)[C@@H](CC(C)C)N(C)C(=O)[C@@H](Cc2ccccc2)NC(=O)[C@H](C(C)C)NC(=O)[C@H](CC(C)C)NC(=O)[C@H]2CCCN2C(=O)[C@H](CC(C)C)NC(=O)[C@@H]2CCCN2C1=O [Design D10.50, LEU VAL DPHE *DLEU DPRO *PHE ILE PRO LEU DPRO] (cyclo(IPL[dP]LV[dF][dNMeL][dP][NMeF]))",6.28E-07,8.97E-07,6.88E-07
"CC[C@H](C)[C@@H]1NC(=O)[C@@H](CC(C)C)NC(=O)[C@H](CC(C)C)NC(=O)[C@H]2CCCN2C(=O)[C@@H]2CCCN2C(=O)[C@H](C)NC(=O)[C@H](Cc2ccccc2)N(C)C(=O)[C@@H](C(C)C)NC(=O)[C@H](Cc2ccccc2)N(C)C(=O)[C@@H](Cc2ccccc2)N(C)C1=O [Design D10.51, ILE *DPHE *PHE DVAL *PHE ALA PRO DPRO LEU DLEU] (cyclo(AP[dP]L[dL]I[dNMeF][NMeF][dV][NMeF]))",BQL,BQL,BQL
"CC[C@H](C)[C@@H]1NC(=O)[C@@H]2CCCN2C(=O)[C@H](C)NC(=O)[C@@H](Cc2ccccc2)N(C)C(=O)[C@H](C)NC(=O)[C@@H]2CCCN2C(=O)[C@@H](Cc2ccccc2)N(C)C(=O)[C@H](Cc2ccccc2)N(C)C(=O)[C@H](CC(C)C)N(C)C(=O)[C@@H](C(C)C)NC1=O [Design D10.52, ILE DVAL *LEU *PHE *DPHE PRO ALA *DPHE ALA PRO] (cyclo(API[dV][NMeL][NMeF][dNMeF]PA[dNMeF]))",BQL,BQL,BQL
"CC(C)C[C@@H]1C(=O)N[C@H](C(C)C)C(=O)N[C@@H](C)C(=O)N2CCC[C@H]2C(=O)N2CCC[C@H]2C(=O)N[C@@H](C)C(=O)N2CCC[C@@H]2C(=O)N[C@@H](Cc2ccccc2)C(=O)N2CCC[C@H]2C(=O)N[C@@H](C(C)C)C(=O)N1C [Design D10.53, ALA DPRO PHE PRO VAL *DLEU DVAL ALA PRO PRO] (cyclo(APPA[dP]FPV[dNMeL][dV]))",BQL,BQL,BQL
"CC(C)C[C@@H]1NC(=O)[C@@H](Cc2ccccc2)NC(=O)[C@@H]2CCCN2C(=O)[C@H]2CCCN2C(=O)[C@@H]2CCCN2C(=O)[C@H](C)NC(=O)[C@H](Cc2ccccc2)N(C)C(=O)[C@H]2CCCN2C(=O)[C@@H](CC(C)C)NC(=O)[C@@H](C(C)C)NC1=O [Design D10.54, DVAL DLEU DPRO *PHE ALA PRO DPRO PRO DPHE LEU] (cyclo([dF]L[dV][dL][dP][NMeF]AP[dP]P))",BQL,BQL,BQL
"CC[C@H](C)[C@@H]1NC(=O)[C@H](C)NC(=O)[C@@H](CC(C)C)NC(=O)[C@H](CC(C)C)N(C)C(=O)[C@H](CC(C)C)NC(=O)[C@@H](Cc2ccccc2)N(C)C(=O)[C@@H]2CCCN2C(=O)[C@H]([C@@H](C)CC)NC(=O)[C@H](Cc2ccccc2)N(C)C(=O)[C@@H](CC(C)C)NC1=O [Design D10.55, DLEU ALA ILE DLEU *PHE ILE PRO *DPHE LEU *LEU] (cyclo(AI[dL][NMeF]IP[dNMeF]L[NMeL][dL]))",BQL,BQL,BQL
"CC(C)C[C@H]1C(=O)N[C@@H](C)C(=O)N(C)CC(=O)N2CCC[C@@H]2C(=O)N(C)[C@@H](C(C)C)C(=O)N[C@@H](C(C)C)C(=O)N2CCC[C@H]2C(=O)N2CCC[C@@H]2C(=O)N[C@@H](C)C(=O)N[C@H](C(C)C)C(=O)N1C [Design D10.66, PRO DPRO ALA DVAL *LEU ALA *GLY DPRO *VAL VAL] (cyclo(A[Sar][dP][NMeV]VP[dP]A[dV][NMeL]))",BQL,BQL,BQL
"CC(C)C[C@@H]1NC(=O)[C@H](CC(C)C)NC(=O)[C@H](C(C)C)NC(=O)[C@H](C)NC(=O)[C@@H]2CCCN2C(=O)[C@H]2CCCN2C(=O)[C@@H]2CCCN2C(=O)[C@H](C)N(C)C(=O)[C@@H](CC(C)C)N(C)C(=O)[C@@H]2CCCN2C(=O)[C@H](Cc2ccccc2)NC1=O [Design D11.7, PHE PRO *DLEU *ALA PRO DPRO PRO ALA VAL LEU LEU] (cyclo(AVLLFP[dNMeL][NMeA]P[dP]P))",BQL,BQL,BQL
"CC[C@H](C)[C@@H]1NC(=O)[C@H]2CCCN2C(=O)[C@H](C(C)C)NC(=O)[C@H](C(C)C)N(C)C(=O)[C@@H](C(C)C)NC(=O)[C@H](C(C)C)NC(=O)[C@H]2CCCN2C(=O)[C@@H]2CCCN2C(=O)[C@H](C)NC(=O)[C@@H](CC(C)C)N(C)C(=O)[C@H]2CCCN2C1=O [Design D11.8, PRO DPRO VAL DVAL *VAL VAL DPRO ILE DPRO *DLEU ALA] (cyclo(AP[dP]V[dV][NMeV]V[dP]I[dP][dNMeL]))",BQL,BQL,BQL
"CC(C)C[C@@H]1NC(=O)[C@@H](C(C)C)NC(=O)[C@@H]2CCCN2C(=O)[C@H]2CCCN2C(=O)[C@H](Cc2ccccc2)NC(=O)[C@@H](C)NC(=O)[C@@H](CC(C)C)N(C)C(=O)[C@@H]2CCCN2C(=O)[C@H]2CCCN2C(=O)[C@@H](C(C)C)NC(=O)[C@@H](C)N(C)C1=O [Design D11.12, DVAL DPRO PRO *DLEU DALA PHE DPRO PRO DVAL LEU *DALA] (cyclo([dNMeL][dA]F[dP]P[dV]L[dNMeA][dV][dP]P))",BQL,BQL,BQL
"CC[C@H](C)[C@@H]1NC(=O)[C@H](CC(C)C)NC(=O)[C@H](Cc2ccccc2)NC(=O)[C@@H](C)NC(=O)[C@H]2CCCN2C(=O)[C@@H]2CCCN2C(=O)[C@H]2CCCN2C(=O)[C@H](CC(C)C)NC(=O)[C@@H](C(C)C)NC(=O)[C@@H](CC(C)C)N(C)C(=O)[C@@H]2CCCN2C1=O [Design D11.17, PRO *DLEU DVAL LEU DPRO PRO DPRO DALA PHE LEU ILE] (cyclo([dP][dA]FLIP[dNMeL][dV]L[dP]P))",BQL,BQL,BQL

# From article PMC9490236, “Accurate de novo design of membrane-traversing macrocycles” (Cell, 2022)
